Test results: patent publication US20240208986A1, “PHENYL AZEPINES AS RIPK1 INHIBITORS AND METHODS OF USE THEREOF” (Merck Sharp & Dohme LLC, priority 2021, published 2024)

Target: RIPK1 (recombinant GST-RIPK1 kinase domain, residues 1-327) (Homo sapiens (Human), UniProt Q13546)
Experiment: RIPK1-ADP-Glo Enzymatic Assay
Type: biochemical
Settings: 25 nM GST-RIPK1, 300 μM ATP, 3 μM dephosphorylated-MBP; 30 minutes pre-incubation, 150 minutes reaction; ten-point titration
Method in brief: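 GST-tagged RIPK1 (25 nM) was preincubated 30 min with compound at ambient temperature in HEPES pH 7.3 buffer, then run 150 min with 300 μM ATP and 3 μM dephosphorylated MBP. ADP was read by ADP-Glo luminescence. EC50 came from 10-point, 1:3 titrations (top 100000 nM, 1% DMSO) fitted to a four-parameter model.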

Sequence of RIPK1 (recombinant GST-RIPK1 kinase domain, residues 1-327) (Q13546 1-327): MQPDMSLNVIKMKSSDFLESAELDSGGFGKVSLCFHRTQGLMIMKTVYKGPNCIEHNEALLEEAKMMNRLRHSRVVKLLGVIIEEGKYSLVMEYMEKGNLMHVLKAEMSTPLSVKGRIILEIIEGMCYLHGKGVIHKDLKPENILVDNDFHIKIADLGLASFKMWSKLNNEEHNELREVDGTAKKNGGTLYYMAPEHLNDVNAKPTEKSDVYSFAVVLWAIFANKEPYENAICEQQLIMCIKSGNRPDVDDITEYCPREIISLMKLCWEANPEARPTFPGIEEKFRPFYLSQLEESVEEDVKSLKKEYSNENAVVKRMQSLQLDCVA

Row | Structure (SMILES) | IC50
1 | N#CCC1(C(=O)N2C[C@@H]3C[C@H]2c2cccc(F)c2O3)CCC1 [Compound 2-28, {1-[(2S,5S)-9-fluoro-2,3-dihydro-2,5-methano-1,4-benzoxazepine-4(5H)-carbonyl]cyclobutyl} acetonitrile] | 809 nM
2 | CC1(C(=O)N2C[C@@H]3C[C@H]2c2cc(F)ccc2O3)CC(C#N)C1 (stereo partly drawn) [Compound 2-29, 3-((2S,5S)-7-fluoro-2,3,4,5-tetrahydro-2,5-methanobenzo[f][1,4]oxaze-pine-4-carbonyl)-3-methylcyclobutane-1-carbonitrile] | 55 nM
3 | CC1(C(=O)N2C[C@@H]3C[C@H]2c2cccc(F)c2O3)CC(C#N)C1 (stereo partly drawn) [Compound 2-30, 3-((2S,5S)-9-fluoro-2,3,4,5-tetrahydro-2,5-methanobenzo[f][1,4]oxaze-pine-4-carbonyl)-3-methylcyclobutane-1-carbonitrile] | 75 nM
4 | C[C@@H]1[C@@H]2C[C@@H](c3ccccc3O2)N1C(=O)C(C)(C)C [Compound 2-31, 2,2-dimethyl-1-((2S,3R,5S)-3-methyl-2,3-dihydro-2,5-methanobenzo[f][1,4]oxaze-pin-4(5H)-yl)propan-1-one] | 132 nM
5 | O=C(N1C[C@@H]2C[C@H]1c1cc(Cl)ccc1O2)C12CCC(F)(CC1)C2 [Compound 2-32, ((2S,5S)-7-chloro-2,3-dihydro-2,5-methanobenzo[f][1,4]oxaze-pin-4(5H)-yl)(4-fluorobicyclo[2.2.1]heptan-1-yl)methanone] | 39 nM
6 | O=C(N1C[C@@H]2C[C@H]1c1ccc(Cl)cc1O2)C12CCC(F)(CC1)C2 [Compound 2-33, ((2S,5S)-8-chloro-2,3-dihydro-2,5-methanobenzo[f][1,4]oxaze-pin-4(5H)-yl)(4-fluorobicyclo[2.2.1]heptan-1-yl)methanone] | 26 nM
7 | N#Cc1ccnc(N2CCC(F)(C(=O)N3C[C@@H]4C[C@H]3c3cc(F)cc(F)c3O4)CC2)n1 [Compound 2-34, 2-(4-((2S,5S)-7,9-difluoro-2,3,4,5-tetrahydro-2,5-methanobenzo[f][1,4]oxaze-pine-4-carbonyl)-4-fluoropiperidin-1-yl)pyrimidine-4-carbonitrile] | 27 nM
8 | O=C(N1C[C@@H]2C[C@H]1c1cc(F)cc(F)c1O2)C12CCC(F)(CC1)C2 [Compound 2-35, ((2S,5S)-7,9-difluoro-2,3-dihydro-2,5-methanobenzo[f][1,4]oxaze-pin-4(5H)-yl)(4-fluorobicyclo[2.2.1]heptan-1-yl)methanone] | 12 nM
9 | N#CC12CCC(C(=O)N3C[C@@H]4C[C@H]3c3cc(F)cc(F)c3O4)(C1)C2 [Compound 2-36, 4-((2S,5S)-7,9-difluoro-2,3,4,5-tetrahydro-2,5-methanobenzo[f][1,4]oxaze-pine-4-carbonyl)bicyclo[2.1.1] hexane-1-carbonitrile] | 19 nM
10 | CC(C)(C)C(=O)N1C[C@H]2Cc3ccccc3[C@@H]1C2 [Compound 3-2, 2,2-dimethyl-1-((1S,4S)-1,3,4,5-tetrahydro-2H-1,4-methanobenzo[c]azepin-2-yl)propan-1-one] | 2240 nM
11 | CC(C)(CC#N)C(=O)N1C[C@H]2Cc3ccccc3[C@@H]1C2 [Compound 3-3, 3,3-dimethyl-4-oxo-4-((1S,4S)-1,3,4,5-tetrahydro-2H-1,4-methanobenzo[c]azepin-2-yl)butanenitrile] | 1490 nM
12 | CC(C)(C)C(=O)N1C[C@]2(C)C[C@H]1c1ccccc1O2 [Compound 3-5, 2,2-dimethyl-1-((2S,5S)-2-methyl-2,3-dihydro-2,5-methanobenzo[f][1,4]oxaze-pin-4(5H)-yl)propan-1-one] | 17800 nM
13 | CC(C)(C(=O)N1C[C@]2(C)C[C@H]1c1ccccc1O2)C(F)F [Compound 3-6, 3,3-difluoro-2,2-dimethyl-1-((2S,5S)-2-methyl-2,3-dihydro-2,5-methanobenzo[f][1,4]oxaze-pin-4(5H)-yl)propan-1-one] | 14700 nM
